ChEMBL document CHEMBL1201862, “PubChem BioAssay data set” (2004)
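Cultured in 96-well plates, cells were exposed to test compound for 48 hours across five concentrations. GI50: concentration for 50% inhibition of growth.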 Active and inactive are the calls of the source. Rule as the data show it: active = GI50 up to about 1.1 µM and inactive = higher.

Tests used:
Assay in all cases: inhibition of tumour cell growth, NCI panel, 48 h
[1] = test system: HCT-116
[2] = test system: OVCAR-3
[3] = test system: SK-OV-3
[4] = test system: NCI-H522
[5] = test system: M14
[6] = test system: SR
[7] = test system: EKVX
[8] = test system: SN12C
[9] = test system: MOLT-4
[10] = test system: SK-MEL-28
[11] = test system: COLO 205
[12] = test system: TK-10
[13] = test system: HT-29
[14] = test system: U-251
[15] = test system: Malme-3M
[16] = test system: CAKI-1
[17] = test system: 786-0
[18] = test system: Hs-578T
[19] = test system: BT-549
[20] = test system: HCC 2998

Measured: GI50

O=C(O)c1cc(CCc2cc(O)ccc2O)ccc1O
inactive: [1] > 100 µM | [2] > 100 µM | [3] > 100 µM | [4] > 100 µM | [5] > 100 µM | [6] > 100 µM | [7] > 100 µM | [8] > 100 µM | [9] 56.6 µM | [10] > 100 µM | [11] > 100 µM | [12] > 100 µM | [13] > 100 µM | [14] > 100 µM | [15] > 100 µM | [16] > 100 µM | [17] > 100 µM | [18] > 100 µM | [19] > 100 µM

Cc1ncc(COP(=O)(O)O)c(C)c1O
inactive: [1] > 100 µM | [2] > 100 µM | [4] > 100 µM | [5] > 100 µM | [6] > 100 µM | [7] > 100 µM | [8] > 100 µM | [9] > 100 µM | [10] > 100 µM | [12] > 100 µM | [13] > 100 µM | [14] > 100 µM | [15] > 100 µM | [16] > 100 µM | [17] > 100 µM | [18] > 100 µM | [19] > 100 µM

CCOC(=O)c1c(NC(=O)c2ccc(Br)cc2)sc2c1CCCC2
inactive: [1] > 100 µM | [2] > 100 µM | [5] > 100 µM | [6] > 100 µM | [7] > 100 µM | [8] > 100 µM | [9] > 100 µM | [10] > 100 µM | [11] > 100 µM | [12] > 100 µM | [13] > 100 µM | [14] > 100 µM | [16] > 100 µM | [17] > 100 µM | [18] 75.5 µM | [19] > 100 µM

Oc1ccc(Cl)cc1C1=NC(NCN2CCN(CNC3=NC(c4ccccc4)CC(c4cc(Cl)ccc4O)=N3)CC2)=NC(c2ccccc2)C1 (stereo not given)
inactive: [1] 20.4 µM | [2] 28.8 µM | [3] 66.7 µM | [5] 58.6 µM | [6] 28 µM | [7] 48.3 µM | [8] 24.7 µM | [10] > 100 µM | [11] 47.4 µM | [12] 48.8 µM | [13] 36.5 µM | [14] 35.4 µM | [20] 52.6 µM | [15] 93.5 µM | [16] 29.5 µM | [17] 20.9 µM | [18] 55.7 µM | [19] 52.2 µM

COc1ccc(N2C(=O)C3ON(C(C(N)=O)c4ccccc4)C(c4ccc(-c5ccccc5)cc4)C3C2=O)cc1 (stereo not given)
inactive: [1] > 50 µM | [2] > 50 µM | [3] > 50 µM | [4] 48.3 µM | [5] 48.4 µM | [6] > 50 µM | [7] > 50 µM | [8] > 50 µM | [9] > 50 µM | [10] > 50 µM | [11] 25.2 µM | [12] > 50 µM | [13] 24.8 µM | [14] > 50 µM | [15] 31.8 µM | [16] > 50 µM | [17] > 50 µM | [18] > 50 µM | [19] > 50 µM

CCOC(=O)C(C)c1nc2cc(N3CCN(C)CC3)c(F)cc2[nH]c1=O (stereo not given)
inactive: [1] > 100 µM | [2] > 100 µM | [3] > 100 µM | [4] 40.5 µM | [5] > 100 µM | [6] > 100 µM | [7] > 100 µM | [8] > 100 µM | [9] > 100 µM | [10] > 100 µM | [11] > 100 µM | [13] > 100 µM | [14] > 100 µM | [15] 28.9 µM | [16] > 100 µM | [17] > 100 µM | [18] > 100 µM | [19] > 100 µM

Cc1ccc(S(=O)(=O)c2ccsc2NC(=O)C(F)(F)F)cc1
inactive: [1] 28.6 µM | [2] 42.6 µM | [3] 36.8 µM | [4] 24.4 µM | [5] 43.4 µM | [7] 46.6 µM | [8] 25.2 µM | [9] 18.5 µM | [10] 93.5 µM | [11] 10.8 µM | [12] 61.1 µM | [13] 35.8 µM | [14] 70.8 µM | [20] 29 µM | [15] 40.7 µM | [16] 34.9 µM | [17] 37.6 µM | [18] 32.7 µM | [19] 40.3 µM

CC(C)(C)C1=NC(=P(c2ccccc2)(c2ccccc2)c2ccccc2)C(=O)O1
inactive: [1] > 100 µM | [3] > 100 µM | [4] 20.2 µM | [5] > 100 µM | [6] > 100 µM | [7] 22.5 µM | [8] > 100 µM | [9] > 100 µM | [10] > 100 µM | [11] > 100 µM | [12] > 100 µM | [13] > 100 µM | [14] > 100 µM | [15] 98.4 µM | [16] > 100 µM | [17] > 100 µM | [18] > 100 µM | [19] > 100 µM

Cc1c2c(cc3c1C(=O)C(O)=C([C@@H](C)CO)C3=O)C(C)(C)CCC2
inactive: [1] 25.7 µM | [2] 27 µM | [3] 32.7 µM | [4] 21.3 µM | [5] 23.2 µM | [6] 2.84 µM | [7] 15.6 µM | [8] 27.7 µM | [9] 13.4 µM | [10] 28 µM | [11] 27 µM | [12] 42.4 µM | [13] 15.8 µM | [14] 17.5 µM | [15] 22.8 µM | [16] 33.4 µM | [17] 32.3 µM | [18] 16.7 µM | [19] 35.2 µM

CC(=C/C=C/C=C(C)\C=C\C=C(\C)C(=O)O)/C=C/C=C(/C)C(=O)O
inactive: [1] > 100 µM | [2] > 100 µM | [3] > 100 µM | [4] > 100 µM | [5] > 100 µM | [6] > 100 µM | [8] > 100 µM | [9] > 100 µM | [10] > 100 µM | [11] > 100 µM | [12] > 100 µM | [13] > 100 µM | [14] > 100 µM | [15] > 100 µM | [16] > 100 µM | [17] > 100 µM | [18] > 100 µM | [19] > 100 µM

O=C(c1cccnc1)N1N=C(c2ccc(Cl)cc2)CC1(O)c1cc(F)c(Cl)cc1Cl (stereo not given)
inactive: [1] 8.3 µM | [2] 6.5 µM | [3] 30.2 µM | [4] 19.5 µM | [5] 22 µM | [6] 8.85 µM | [7] 17.5 µM | [8] 14.1 µM | [9] 6.46 µM | [10] 23.6 µM | [11] 9.98 µM | [12] 41.1 µM | [13] 14.8 µM | [14] 14.3 µM | [15] 33.3 µM | [16] 28.5 µM | [17] 17.9 µM | [18] 29.4 µM | [19] 24.6 µM
